Measured values published in patent US7977484B2, “Crystalline form of cyano-1-cyclopropy1-7-1S,6S-2,8-diazabicyclo[4.3.0]nonan-8-yl)-6-fluoro-1,4-dihydro-4-oxo-3-quinoline carboxylic acid” (Bayer Animal Health GmbH, priority 2004, dated 2011).

Legend:
[1] = storage stability of the crystal form; assay type: physicochemical; settings: prolonged storage
[2] = water uptake from the air (hygroscopicity); assay type: physicochemical

SMILES: N#Cc1c(N2C[C@@H]3CCCN[C@@H]3C2)c(F)cc2c(=O)c(C(=O)O)cn(C3CC3)c12 [Pradofloxacin trihydrate, pradofloxacin trihydrate]
- conversion to other crystal forms [1]: not converted to other crystal forms
- tendency to take up further water from the air [2]: does not show any tendency to take up further water from the air
